Counter-ions that a name gives are not always drawn.
How the values were obtained:
AXL = target: T1, AXL (Homo sapiens, UniProt P30530); assay: TR-FRET kinase activity assay, AXL; format: biochemical; conditions: ATP at Km, 60 minutes
T1 sequence (P30530 26-894): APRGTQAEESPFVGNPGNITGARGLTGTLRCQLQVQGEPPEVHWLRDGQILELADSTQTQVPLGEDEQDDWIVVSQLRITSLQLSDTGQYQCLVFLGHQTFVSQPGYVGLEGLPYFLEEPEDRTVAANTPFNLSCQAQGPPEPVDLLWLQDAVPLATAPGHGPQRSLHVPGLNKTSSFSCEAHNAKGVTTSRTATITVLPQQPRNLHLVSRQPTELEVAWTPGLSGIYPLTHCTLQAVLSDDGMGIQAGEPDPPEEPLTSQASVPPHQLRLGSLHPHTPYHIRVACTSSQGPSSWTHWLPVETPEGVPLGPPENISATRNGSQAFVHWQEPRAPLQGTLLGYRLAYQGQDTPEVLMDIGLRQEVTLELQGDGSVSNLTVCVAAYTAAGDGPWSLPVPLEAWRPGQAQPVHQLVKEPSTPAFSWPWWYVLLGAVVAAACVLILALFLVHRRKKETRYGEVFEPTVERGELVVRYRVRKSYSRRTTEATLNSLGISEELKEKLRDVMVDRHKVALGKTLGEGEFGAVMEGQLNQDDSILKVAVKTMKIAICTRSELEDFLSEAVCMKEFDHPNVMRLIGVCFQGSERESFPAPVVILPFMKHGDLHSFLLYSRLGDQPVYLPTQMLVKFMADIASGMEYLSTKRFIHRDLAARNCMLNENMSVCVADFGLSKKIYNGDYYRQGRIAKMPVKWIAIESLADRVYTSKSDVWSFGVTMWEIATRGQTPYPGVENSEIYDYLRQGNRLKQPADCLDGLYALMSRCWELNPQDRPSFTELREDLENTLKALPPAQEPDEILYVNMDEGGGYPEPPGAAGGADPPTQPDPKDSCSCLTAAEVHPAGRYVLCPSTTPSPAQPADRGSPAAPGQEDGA
How it was run: (§1)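 IC50s come from loss of TR-FRET between a Eu-labeled phospho-site antibody and fluorescent tyrosine-phosphorylated peptide. Kinase reactions, initiated with Km ATP, ran 60 min at RT at pH 7.5 before EDTA quench.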

FLT3 = target: T2, FLT3 (Homo sapiens, UniProt P36888); assay: TR-FRET kinase activity assay, FLT3; format: biochemical; conditions: ATP at Km, 60 minutes
T2 sequence (P36888 27-993): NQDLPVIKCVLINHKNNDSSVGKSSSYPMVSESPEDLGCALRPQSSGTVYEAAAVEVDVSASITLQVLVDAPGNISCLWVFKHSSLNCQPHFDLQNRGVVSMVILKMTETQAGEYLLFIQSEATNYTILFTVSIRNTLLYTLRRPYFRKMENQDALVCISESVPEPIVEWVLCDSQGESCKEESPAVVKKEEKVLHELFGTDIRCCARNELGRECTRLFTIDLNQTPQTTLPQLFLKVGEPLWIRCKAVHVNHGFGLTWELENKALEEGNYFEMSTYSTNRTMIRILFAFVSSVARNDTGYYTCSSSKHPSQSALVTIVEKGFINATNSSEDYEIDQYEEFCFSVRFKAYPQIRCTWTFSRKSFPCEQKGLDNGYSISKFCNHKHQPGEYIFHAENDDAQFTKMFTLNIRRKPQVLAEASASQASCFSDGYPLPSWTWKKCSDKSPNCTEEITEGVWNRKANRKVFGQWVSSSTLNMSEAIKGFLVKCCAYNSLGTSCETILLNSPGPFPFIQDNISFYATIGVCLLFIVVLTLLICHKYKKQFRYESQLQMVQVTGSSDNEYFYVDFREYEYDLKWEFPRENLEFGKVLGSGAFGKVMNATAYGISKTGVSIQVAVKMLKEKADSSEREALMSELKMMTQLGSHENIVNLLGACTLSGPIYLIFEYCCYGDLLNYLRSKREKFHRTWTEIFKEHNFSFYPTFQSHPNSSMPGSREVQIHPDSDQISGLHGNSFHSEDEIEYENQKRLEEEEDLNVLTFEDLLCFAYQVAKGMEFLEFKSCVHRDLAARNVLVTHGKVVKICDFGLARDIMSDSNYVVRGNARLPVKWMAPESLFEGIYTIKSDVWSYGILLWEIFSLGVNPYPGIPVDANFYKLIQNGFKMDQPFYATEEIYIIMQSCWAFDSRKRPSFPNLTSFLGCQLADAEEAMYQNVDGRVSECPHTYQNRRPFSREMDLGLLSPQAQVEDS
How it was run: as §1

CCCCNc1ncc2c(=O)n(-c3ccc(CN4CCOCC4)cc3)cc([C@H]3CC[C@H](O)CC3)c2n1 [Compound 101]
IC50 (AXL): 0.1 to 1 µM
IC50 (FLT3): 0.1 to 1 µM

CCCCNc1ncc2c(NCc3ccc(F)cc3)ncc([C@H]3CC[C@H](O)CC3)c2n1 [Compound 103, 4-[2-(butylamino)-5-[(4-fluorophenyl)methylamino]pyrido[4,3-d]pyrimidin-8-yl]cyclohexanol hydrochloride]
IC50 (AXL): 0.1 to 1 µM
IC50 (FLT3): ≤ 0.1 µM

CCCCNc1ncc2c(OC3CCOCC3)ncc([C@H]3CC[C@H](O)CC3)c2n1 [Compound 104, (1r,4r)-4-(2-(butylamino)-5-((tetrahydro-2H-pyran-4-yl)oxy)pyrido[4,3-d]pyrimidin-8-yl)cyclohexanol]
IC50 (AXL): ≤ 0.1 µM
IC50 (FLT3): ≤ 0.1 µM

CCCCNc1ncc2c(OC)ncc([C@H]3CC[C@H](O)CC3)c2n1 [Compound 127]
IC50 (AXL): ≤ 0.1 µM
IC50 (FLT3): ≤ 0.1 µM

CCCC(C)Nc1ncc2c(=O)n(C3CCN(C(C)=O)CC3)cc([C@H]3CC[C@H](O)CC3)c2n1 (some centres unmarked) [Compound 128, 6-(1-acetylpiperidin-4-yl)-8-((1r,4r)-4-hydroxycyclohexyl)-2-(pentan-2-ylamino)pyrido[4,3-d]pyrimidin-5(6H)-one hydrochloride]
IC50 (AXL): 0.1 to 1 µM
IC50 (FLT3): 1 to 10 µM

CCCCNc1ncc2c(OC3CCNCC3)ncc([C@H]3CC[C@H](O)CC3)c2n1 [Compound 129]
IC50 (AXL): ≤ 0.1 µM
IC50 (FLT3): ≤ 0.1 µM

CCCCC[C@H](C)Nc1ncc2c(OC3CCNCC3)ncc([C@H]3CC[C@H](O)CC3)c2n1 [Compound 130]
IC50 (AXL): ≤ 0.1 µM
IC50 (FLT3): 1 to 10 µM

CCCCNc1ncc2c(OC3CCN(C)CC3)ncc([C@H]3CC[C@H](O)CC3)c2n1 [Compound 131]
IC50 (AXL): ≤ 0.1 µM
IC50 (FLT3): ≤ 0.1 µM

O[C@H]1CC[C@H](c2cnc(OC3CCOCC3)c3cnc(NC4CCCC4)nc32)CC1 [Compound 132]
IC50 (AXL): ≤ 0.1 µM
IC50 (FLT3): ≤ 0.1 µM

CCCC(C)Nc1ncc2c(OC3CCOCC3)ncc([C@H]3CC[C@H](O)CC3)c2n1 (some centres unmarked) [Compound 133]
IC50 (AXL): 0.1 to 1 µM
IC50 (FLT3): 1 to 10 µM

O[C@H]1CC[C@H](c2cnc(OC3CCOCC3)c3cnc(Nc4ccc(Cl)cc4)nc32)CC1 [Compound 134, (1r,4r)-4-(2-((4-chlorophenyl)amino)-5-((tetrahydro-2H-pyran-4-yl)oxy)pyrido[4,3-d]pyrimidin-8-yl)cyclohexan-1-ol]
IC50 (AXL): ≤ 0.1 µM
IC50 (FLT3): 0.1 to 1 µM

CC(C)Nc1ncc2c(OC3CCNCC3)ncc([C@H]3CC[C@H](O)CC3)c2n1 [Compound 135]
IC50 (AXL): ≤ 0.1 µM
IC50 (FLT3): 1 to 10 µM

O[C@H]1CC[C@H](c2cnc(OC3CCNCC3)c3cnc(N[C@H]4CCOC4)nc32)CC1 [Compound 136]
IC50 (AXL): 0.1 to 1 µM
IC50 (FLT3): 1 to 10 µM

C[C@@H](CO)Nc1ncc2c(OC3CCOCC3)ncc([C@H]3CC[C@H](O)CC3)c2n1 [Compound 137]
IC50 (AXL): 1 to 10 µM
IC50 (FLT3): 1 to 10 µM

CCCC(C)Nc1ncc2c(=O)n(C3CCN(S(C)(=O)=O)CC3)cc([C@H]3CC[C@@H](O)CC3)c2n1 (some centres unmarked) [Compound 138]
IC50 (AXL): 0.1 to 1 µM
IC50 (FLT3): 1 to 10 µM

CCCC(C)Nc1ncc2c(O[C@H]3CC[C@H](O)CC3)ncc([C@H]3CC[C@H](O)CC3)c2n1 (some centres unmarked) [Compound 139]
IC50 (AXL): 0.1 to 1 µM
IC50 (FLT3): 0.1 to 1 µM

CCC(C)Nc1ncc2c(OC3CCOCC3)ncc([C@H]3CC[C@H](O)CC3)c2n1 (some centres unmarked) [Compound 140]
IC50 (AXL): 0.1 to 1 µM
IC50 (FLT3): 1 to 10 µM

CCCC(C)Nc1ncc2c(OC3CCS(=O)(=O)CC3)ncc([C@H]3CC[C@H](O)CC3)c2n1 (some centres unmarked) [Compound 141]
IC50 (AXL): 0.1 to 1 µM
IC50 (FLT3): 1 to 10 µM

CCCC(C)Nc1ncc2c(OC3CCS(=O)(=O)CC3)ncc([C@H]3CC[C@@H](O)CC3)c2n1 (some centres unmarked) [Compound 142]
IC50 (AXL): 1 to 10 µM
IC50 (FLT3): 1 to 10 µM

CCCC(C)Nc1ncc2c(OC3CCN(S(C)(=O)=O)CC3)ncc([C@H]3CC[C@H](O)CC3)c2n1 (some centres unmarked) [Compound 143]
IC50 (AXL): 0.1 to 1 µM
IC50 (FLT3): 1 to 10 µM

CC1(C)CC(Nc2ncc3c(OC4CCOCC4)ncc([C@H]4CC[C@H](O)CC4)c3n2)C1 [Compound 144]
IC50 (AXL): 0.1 to 1 µM
IC50 (FLT3): ≤ 0.1 µM

COC[C@@H](C)Nc1ncc2c(OC3CCOCC3)ncc([C@H]3CC[C@H](O)CC3)c2n1 [Compound 145]
IC50 (AXL): 1 to 10 µM
IC50 (FLT3): 1 to 10 µM

CCCC(C)Nc1ncc2c(N(C)C3CCN(C)CC3)ncc([C@H]3CC[C@H](O)CC3)c2n1 (some centres unmarked) [Compound 146]
IC50 (AXL): 1 to 10 µM
IC50 (FLT3): 1 to 10 µM

CCCC(C)Nc1ncc2c(OC3CCC(OC)CC3)ncc([C@H]3CC[C@H](O)CC3)c2n1 (some centres unmarked) [Compound 147]
IC50 (AXL): 0.1 to 1 µM
IC50 (FLT3): 1 to 10 µM

CCCC(C)Nc1ncc2c(O[C@H]3CC[C@@H](O)CC3)ncc([C@H]3CC[C@H](O)CC3)c2n1 (some centres unmarked) [Compound 148]
IC50 (AXL): 0.1 to 1 µM
IC50 (FLT3): 1 to 10 µM

CCCC(C)Nc1ncc2c(=O)n(C3CCN(CC(=O)N(C)C)CC3)cc([C@H]3CC[C@@H](O)CC3)c2n1 (some centres unmarked) [Compound 149]
IC50 (AXL): 0.1 to 1 µM
IC50 (FLT3): 1 to 10 µM

CCCC(C)Nc1ncc2c(=O)n(C3CCN(CCOC)CC3)cc([C@H]3CC[C@H](O)CC3)c2n1 (some centres unmarked) [Compound 150]
IC50 (AXL): 0.1 to 1 µM
IC50 (FLT3): 1 to 10 µM

CCCC(C)Nc1ncc2c(=O)n(C3CCN(CCC(=O)N(C)C)CC3)cc([C@H]3CC[C@H](O)CC3)c2n1 (some centres unmarked) [Compound 151]
IC50 (AXL): 0.1 to 1 µM
IC50 (FLT3): 1 to 10 µM

CCC[C@@H](C)Nc1ncc2c(=O)n(C3CCNCC3)cc([C@H]3CC[C@H](O)CC3)c2n1 [Compound 152]
IC50 (AXL): 1 to 10 µM
IC50 (FLT3): 1 to 10 µM

CCCC(C)Nc1ncc2c(OC3CCC(F)(F)CC3)ncc([C@H]3CC[C@H](O)CC3)c2n1 (some centres unmarked) [Compound 153]
IC50 (AXL): 1 to 10 µM
IC50 (FLT3): 1 to 10 µM

CCCC(C)Nc1ncc2c(NC3CCN(C)CC3)ncc([C@H]3CC[C@H](O)CC3)c2n1 (some centres unmarked) [Compound 154]
IC50 (AXL): ≤ 0.1 µM
IC50 (FLT3): 0.1 to 1 µM

CCCC(C)Nc1ncc2c(N3CCC(NC)CC3)ncc([C@H]3CC[C@H](O)CC3)c2n1 (some centres unmarked) [Compound 155]
IC50 (AXL): 0.1 to 1 µM
IC50 (FLT3): 1 to 10 µM

CCCC(C)Nc1ncc2c(N3CC[C@@H](N(C)C)C3)ncc([C@H]3CC[C@H](O)CC3)c2n1 (some centres unmarked) [Compound 156]
IC50 (AXL): 0.1 to 1 µM
IC50 (FLT3): 1 to 10 µM

CCCC(C)Nc1ncc2c(OC[C@H]3CC[C@@H](O)CC3)ncc([C@H]3CC[C@H](O)CC3)c2n1 (some centres unmarked) [Compound 157]
IC50 (AXL): 0.1 to 1 µM
IC50 (FLT3): 1 to 10 µM

CCCC(C)Nc1ncc2c(NC3CCNCC3)ncc([C@H]3CC[C@H](O)CC3)c2n1 (some centres unmarked) [Compound 158]
IC50 (AXL): ≤ 0.1 µM
IC50 (FLT3): 0.1 to 1 µM

CCCC(C)Nc1ncc2c(N3CC[C@H](N(C)C)C3)ncc([C@H]3CC[C@H](O)CC3)c2n1 (some centres unmarked) [Compound 159]
IC50 (AXL): 1 to 10 µM
IC50 (FLT3): 1 to 10 µM

CCCC(C)Nc1ncc2c(OC[C@H]3CC[C@H](O)CC3)ncc([C@H]3CC[C@H](O)CC3)c2n1 (some centres unmarked) [Compound 160]
IC50 (AXL): 0.1 to 1 µM
IC50 (FLT3): 1 to 10 µM

CCCC(C)Nc1ncc2c(OC3CC(C)(C)N(C)C(C)(C)C3)ncc([C@H]3CC[C@H](O)CC3)c2n1 (some centres unmarked) [Compound 161]
IC50 (AXL): ≤ 0.1 µM
IC50 (FLT3): 0.1 to 1 µM

CN1CCC(Nc2ncc3c(OC4CCNCC4)ncc([C@H]4CC[C@H](O)CC4)c3n2)C1=O (some centres unmarked) [Compound 162]
IC50 (AXL): 1 to 10 µM
IC50 (FLT3): 1 to 10 µM

Cc1nccn1CCNc1ncc2c(OC3CCNCC3)ncc([C@H]3CC[C@H](O)CC3)c2n1 [Compound 163]
IC50 (AXL): 1 to 10 µM
IC50 (FLT3): 1 to 10 µM
